Results taken from US20010055590A1, “Method for enhancing myoblast migration and invasion in the context of gene therapy” (priority 1999, published 2001).

B1: purified human plasmin (protein, UniProt P00747 20-580; P00747 581-810, looked up)
Plasmin heavy chain A: EPLDDYVNTQGASLFSVTKKQLGAGSIEECAAKCEEDEEFTCRAFQYHSKEQQCVIMAENRKSSIIIRMRDVVLFEKKVYLSECKTGNGKNYRGTMSKTKNGITCQKWSSTSPHRPRFSPATHPSEGLEENYCRNPDNDPQGPWCYTTDPEKRYDYCDILECEEECMHCSGENYDGKISKTMSGLECQAWDSQSPHAHGYIPSKFPNKNLKKNYCRNPDRELRPWCFTTDPNKRWELCDIPRCTTPPPSSGPTYQCLKGTGENYRGNVAVTVSGHTCQHWSAQTPHTHNRTPENFPCKNLDENYCRNPDGKRAPWCHTTNSQVRWEYCKIPSCDSSPVSTEQLAPTAPPELTPVVQDCYHGDGQSYRGTSSTTTTGKKCQSWSSMTPHRHQKTPENYPNAGLTMNYCRNPDADKGPWCFTTDPSVRWEYCNLKKCSGTEASVVAPPPVVLLPDVETPSEEDCMFGNGKGYRGKRATTVTGTPCQDWAAQEPHRHSIFTPETNPRAGLEKNYCRNPDGDVGGPWCYTTNPRKLYDYCDVPQCAAPSFDCGKPQVEPKKCPGR
Plasmin light chain B: VVGGCVAHPHSWPWQVSLRTRFGMHFCGGTLISPEWVLTAAHCLEKSPRPSSYKVILGAHQEVNLEPHVQEIEVSRLFLEPTRKDIALLKLSSPAVITDKVIPACLPSPNYVVADRTECFITGWGETQGTFGAGLLKEAQLPVIENKVCNRYEFLNGRVQSTELCAGHLAGGTDSCQGDSGGPLVCFEKDKYILQGVTSWGLGCARPNKPGVYVRVSRFVTWIEGVMRNN
modifications: Plasmin

Tests used:
mouse myoblasts = test: In vitro mouse myoblast migration assay (gelatin-coated membrane); format: cell-based; details: 12 hours; for stimulation of mouse myoblast migration over the DMEM control: 25 ng/ml bFGF, 50 μg/ml fibronectin, 10 ng/ml HGF, 2 ng/ml TGF-β1; for effect on mouse myoblast migration: stimulant in bottom chamber; for effect on bFGF-stimulated mouse myoblast migration: 0.05 units/ml plasmin or 50 mM NAC in top chamber; for effect on migration stimulated by bFGF and fibronectin in combination: 0.05 units/ml plasmin or 50 mM NAC
Method: Mouse myoblasts were previously isolated from hind limb muscles of 4-6 week old severe combined immunodeficient (SCID) mice and clonally purified from contaminating fibroblasts (Yao et al. “Primary myoblast-mediated gene: transfer: persistent expression of human factor IX in mice” Gene Therapy 1:99-107, 1994). Myoblasts (approximately 1×10^6 cells) were plated on 6 cm tissue culture plates coated with 0.5% gelatin (Sigma, St. Louis, Mo.) and grown in growth medium consisting of Dulbecco's Modified Eagle Medium (DMEM) (Gibco BRL, Gaithersburg Md.) supplemented with 20% fetal bovine serum (FBS; Gibco) and 0.5% chick embryo extract (CEE; Gibco). All animal studies were carried out following the institutional guidelines for ethical animal use. Human myoblasts were isolated using trypsin digestion from abdominal wall or chest wall muscle biopsies, and surgery. Written consent was obtained from all patients prior to biopsy isolation as approved by the University Hospital's Institutional Regulation Board on the use of human subjects. Cells were preplated on uncoated plates for 1 hour to separate muscle fibroblasts. […] All experiments were done with myoblasts of passage 7 or lower. Myoblast migration and invasion were examined using a commercially available in vitro cell migration and invasion assay kit (Biocoat, Becton Dickinson, Franklin Lakes, N.J.) as described by Albini et al. (A rapid in vitro assay for quantitating the invasive potential of tumor cells Cancer Res 47:3239-3245, 1987). Myoblasts were grown to approximately 70% confluence, rinsed three times in serum-free DMEM, followed by incubation for 3 hours in 0.2% bovine serum albumin (BSA) in DMEM to eliminate the effects of serum. Cells were then trypsinized and collected by centrifugation. Cells were resuspended in serum-free DMEM at a density of 1×10^5 cells/ml, and 0.5 ml aliquots of cell suspension were added to the top chamber. […] Fibronectin subfragments of 45 KDa (Sigma), 120 kDa (Gibco), 63 kDa (Retronectin, Takara) and 70 KDa (Sigma) were used alone or in combination. […] For migration studies, the upper chamber membrane was coated with 0.1% gelatin and cells were allowed to migrate for 8-12 hours, while for invasion studies, the upper membrane was coated with 5 μl of Matrigel® diluted to 5 mg/ml in sterile phosphate buffered saline (PBS) and cells were allowed to invade for 24 hours. The top side of the insert membrane was scrubbed free of cells using a cotton swab and the bottom side was stained using the Leukostat-I system (Fisher Diagnostics, Pittsburgh, Pa.). The number of cells per field was counted in 10 randomly selected fields and averaged for each condition. To evaluate the effects of inactivation or activation of MMPs, aliquots (0.05 units in 50 μl PBS) of purified human plasmin (Sigma) or 50 mM N-acetyl cysteine (NAC; Sigma) were added with the cells to the top chamber of the migration assay and growth factor was added to the bottom. […] Myoblasts (5×10^4 cells/well) were stimulated with various growth factors and fibronectin, and their ability to migrate or invade through a Matrigel® barrier (panel a, mouse myoblast migration at 12 hours; panel b, mouse myoblast invasion at 24 hours). […] Bars represent mean ±SEM from a minimum of 3 separate experiments. […] Further studies were done to elucidate the role of MMPs in cytokine-mediated mouse myoblast migration.

human myoblasts = test: In vitro human myoblast migration assay; format: cell-based; details: for stimulation of human myoblast migration over the BSA control level: 12 hour time point; for effect on stimulated human myoblast migration: plasmin or NAC, FIG. 7c, migration induced by PDGF-BB
Method: Mouse myoblasts were previously isolated from hind limb muscles of 4-6 week old severe combined immunodeficient (SCID) mice and clonally purified from contaminating fibroblasts (Yao et al. “Primary myoblast-mediated gene: transfer: persistent expression of human factor IX in mice” Gene Therapy 1:99-107, 1994). Myoblasts (approximately 1×10^6 cells) were plated on 6 cm tissue culture plates coated with 0.5% gelatin (Sigma, St. Louis, Mo.) and grown in growth medium consisting of Dulbecco's Modified Eagle Medium (DMEM) (Gibco BRL, Gaithersburg Md.) supplemented with 20% fetal bovine serum (FBS; Gibco) and 0.5% chick embryo extract (CEE; Gibco). All animal studies were carried out following the institutional guidelines for ethical animal use. Human myoblasts were isolated using trypsin digestion from abdominal wall or chest wall muscle biopsies, and surgery. Written consent was obtained from all patients prior to biopsy isolation as approved by the University Hospital's Institutional Regulation Board on the use of human subjects. Cells were preplated on uncoated plates for 1 hour to separate muscle fibroblasts. Approximately 95% of the cells were desmin-positive following immunohistochemical staining of representative culture samples, and were capable of differentiation into myotubes, indicating high purity of the myoblast preparation. All experiments were done with myoblasts of passage 7 or lower. Myoblast migration and invasion were examined using a commercially available in vitro cell migration and invasion assay kit (Biocoat, Becton Dickinson, Franklin Lakes, N.J.) as described by Albini et al. (A rapid in vitro assay for quantitating the invasive potential of tumor cells Cancer Res 47:3239-3245, 1987). Myoblasts were grown to approximately 70% confluence, rinsed three times in serum-free DMEM, followed by incubation for 3 hours in 0.2% bovine serum albumin (BSA) in DMEM to eliminate the effects of serum. Cells were then trypsinized and collected by centrifugation. Cells were resuspended in serum-free DMEM at a density of 1×10^5 cells/ml, and 0.5 ml aliquots of cell suspension were added to the top chamber. […] Fibronectin subfragments of 45 KDa (Sigma), 120 kDa (Gibco), 63 kDa (Retronectin, Takara) and 70 KDa (Sigma) were used alone or in combination. The growth factor concentrations used were those which could produce maximal effects as examined in the present studies by extending from values reported by Bischoff (“Chemotaxis of skeletal muscle satellite cells” Devel. Dynamics 208:505-515, 1997). For migration studies, the upper chamber membrane was coated with 0.1% gelatin and cells were allowed to migrate for 8-12 hours, while for invasion studies, the upper membrane was coated with 5 μl of Matrigel® diluted to 5 mg/ml in sterile phosphate buffered saline (PBS) and cells were allowed to invade for 24 hours. The top side of the insert membrane was scrubbed free of cells using a cotton swab and the bottom side was stained using the Leukostat-I system (Fisher Diagnostics, Pittsburgh, Pa.). The number of cells per field was counted in 10 randomly selected fields and averaged for each condition. To evaluate the effects of inactivation or activation of MMPs, aliquots (0.05 units in 50 μl PBS) of purified human plasmin (Sigma) or 50 mM N-acetyl cysteine (NAC; Sigma) were added with the cells to the top chamber of the migration assay and growth factor was added to the bottom. […] The effects of growth factors on human myoblast migration in vitro (12 hour time point) were somewhat different from those observed with mouse myoblasts. […] The greatly elevated level of migration of human myoblasts was due in part to the extremely low migration in the BSA control (basal level) of human cells compared to mouse cells. The largest effects on human myoblast migration were produced by fibronectin (100-fold), PDGF (about 62-fold), TGF-β (about 54-fold) and HGF (46-fold) over the control level, while bFGF produced only a 37-fold stimulation (FIG. 7a). […]

Row | Molecule | stimulation of mouse myoblast migration over the DMEM control (mouse myoblasts) | effect on mouse myoblast migration (mouse myoblasts) | stimulation of human myoblast migration over the BSA control level (human myoblasts) | effect on migration stimulated by combination of bFGF and plasmin (mouse myoblasts; 50 mM NAC) | effect on bFGF-stimulated mouse myoblast migration (mouse myoblasts) | effect on migration stimulated by bFGF and fibronectin in combination (mouse myoblasts) | effect on stimulated human myoblast migration (human myoblasts) | effect alone on mouse myoblast migration compared to the control (mouse myoblasts; 0.05 units/ml plasmin, no growth factor)
1 | human serum fibronectin | 14 fold | stimulated migration of mouse myoblasts to various degrees | 100 fold | – | – | – | – | –
2 | bovine basic fibroblast growth factor [bFGF] | 12 fold | stimulated migration of mouse myoblasts to various degrees | 37 fold | – | – | – | – | –
3 | CC(=O)N[C@@H](CS)C(=O)O [NAC, N-acetyl cysteine, reference compound] | – | – | – | dramatic reduction | efficiently reduced the effect of bFGF on mouse myoblast migration to a level similar to the BSA control | attenuated the effects | greatly reduced | –
4 | B1 | – | – | – | – | increased the migrational response to bFGF by nearly twofold | attenuated the effect | significantly increased | slightly negative effect
